“Also recorded” adds a separate entry of the source. Where two headings read alike, the source gives them in different places. One block for each compound: values may come before it.
Legend:
HCT116 cells = assay: Cell viability, Alamar Blue, 24 h treatment; type: cell-based; details: relative to DMSO controls
Procedure: 5,000 HCT116 cells were seeded in 100 μL complete growth media per well in 96-well plates.

[1] = tested on: HCT116, H929, and MM1S cells; assay: Proliferation assay (continuous exposure), 72 h, Alamar Blue; type: cell-based; details: 72 h continuous
Procedure: To assess in vitro anticancer activity, HCT116, H929, and MM1S cells were treated continuously for 72 hours with increasing concentrations of (S,S)-A3, (S,R)-A3, or dA3 (cyclic peptide 4 (Carelli, Taunton, et al., eLife, 2015), here termed “dA3” (deoxy-A3)). Cell viability was then assessed using the Alamar Blue assay.

[2] = tested on: HCT116, H929, and MM1S cells; assay: Proliferation assay (transient exposure, followed by washout), CellTiter Glo; type: cell-based; details: for antiproliferative activity after transient exposure and washout: 1 h or 4 h exposure, stringent washout, 72 h compound-free media, HCT116, H929, MM1S
Procedure: 0.6×10^6 cells were seeded in 3 mL complete growth media per well in 6-well plates. […] For adherent cells, growth media was carefully removed, cells were washed with warm PBS twice (2×short wash), and followed by 5 min incubation in warm media at 37° C. (long wash). After repeating the “short-long” washing cycle 3 times, cells were resuspended in warm media and plated in flat-bottom 96-well plates (100 uL/well) at equal cell number. For suspension cells, cells were collected and spun down at 300×g for 3 min. Supernatant was carefully removed, cells were then washed with warm PBS twice (2× short wash), followed by 5 min incubation in warm media at 37° C. (long wash). After repeating the “short-long” washing cycle 3 times, cells were resuspended in warm media and plated in flat-bottom 96-well plates (100 uL/well) at equal cell number. After the indicated times post-washout, CellTiter Glo (Promega, Madison, Wis.) was used to asses the cell viability per the manufacturer's instructions. Briefly, after adding 100 uL CellTiter Glo reagent to each well, the plate was rocked at room temperature for 5-10 min, and luminescence intensity was measured. Proliferation curves were generated by first normalizing luminescence intensity in each well to the average T=0 value for each compound. Normalized luminescence intensity was plotted in GraphPad Prism (triplicate values, mean±SD).

[3] = tested on: protein synthesis in HCT116 cells; assay: Protein synthesis inhibition assay (transient exposure, followed by washout), O-propargyl puromycin incorporation; type: cell-based; details: 100 nM for 4 h, 24 h compound-free media
Procedure: HCT116 cells at 80% confluency in 24-well plates were incubated with compounds with at 100 nM for 4 hours at 37° C. O-propargyl-puromycin (30 uM final concentration) was then added, and the cells were incubated for 1 hour at 37° C. Media was carefully removed, cells were washed with warm PBS twice (2× short wash), followed by 5 min incubation in warm medium at 37° C. (long wash). After repeating the “short-long” washing cycle for 3 times, cells were then resuspended in warm media and incubated at 37° C. After the indicated time post-washout, media was removed, and cells were trypsinized, collected, and washed twice with ice-cold PBS before transferring to a 96-well V bottom plate. 100 uL Zombie Red (BioLegend, San Diego, Calif.) solution was added to each well and incubated for 30 min at RT in the dark. Cells were then washed with 2% FBS in PBS buffer before fixed with 200 uL of 4% PFA in PBS for 15 min on ice in dark. After washing the cells with 2% FBS in PBS buffer, 200 uL permeabilization buffer (3% FBS, 0.1% Saponin in PBS) was added to each well, and cells were incubated for 5 min at RT in the dark. Cells were then washed and resuspended in 25 uL permeabilization buffer. 100 uL click chemistry mix (50 mM HEPES pH=7.5, 150 mM NaCl, 400 uM TCEP, 250 uM TBTA, 5 uM CF405M-Azide (Biotium, Fremont, Calif.), 200 uM Cu2SO4) was added to each well, and cells were incubated at RT in dark. After the overnight incubation, cells were washed with permeabilization buffer followed by FACS buffer (2% FBS, 1% P/S, 2 mM EDTA, in PBS w/o Ca/Mg). Cells were then resuspended in 200 uL FACS buffer and filtered before FACS analysis (FACSCanto II, Becton Dickinson, Franklin Lakes, N.J.). Only single, live cells were analyzed (FlowJo), as judged by forward/side scattering and the absence of Zombie Red staining. Protein synthesis inhibition curves were generated by first normalizing intensity to the cycloheximide-treated (50 μg/mL for 1 h, maximum inhibition) and DMSO-treated control samples. Normalized intensity was plotted in GraphPad Prism.

Eμ-Myc/+ lymphoma cells = assay: Eμ-Myc mouse lymphoma model; type: in vivo
Procedure: Mouse studies were approved by the University of California, San Francisco Institutional Animal Care and Use Committee (IACUC). Eμ-Myc/+ mice were purchased from the Jackson Laboratory. For the Eμ-Myc tumor model, allograft mice were generated using spontaneous lymph node tumors derived from Eμ-Myc mice. 5×10^5 Eμ-Myc/+ lymphoma cells were injected via the tail vein into eight-week-old male C57BL/6J mice. Seven days after lymphoma cell injection, mice were randomized to receive vehicle (10% EtOH/Kolliphor EL in water, n=5 mice) or (S,R)-A3 (n=5 mice) by intraperitoneal injection every other day (3 times per week) until the endpoint based on the IACUC-approved protocol. Eμ-Myc mice in the (S,R)-A3 treatment arm received (S,R)-A3 at a dose of 2 mg/kg for the first 21 days and 1-2 mg/kg after treatment day 21 according to their body weights (BW): BW>26 g, 2 mg/kg; BW 25-26 g, 1.5 mg/kg; BW 24-25 g, 1 mg/kg).
We next tested the effect of (S,R)-A3 in a preclinical mouse model of B-cell lymphoma using an intermittent dosing regimen (QOD×3, every other day, 3 doses per week via intraperitoneal injection). Eμ-Myc/+ mice are a well-characterized mouse lymphoma model that overexpress MYC under the transcriptional control of the IgH enhancer element. These mice recapitulate the genetic lesion underlying Burkitt's Lymphoma. Eμ-Myc/+ lymphoma cells were injected via the tail vein into eight-week-old male C57BL/6J mice. Seven days after lymphoma cell injection, mice were randomized to receive vehicle or (S,R)-A3 by intraperitoneal injection (QOD×3, n=5 mice/treatment arm).

[4] = biological target: eEF1A (Elongation Factor 1-alpha), wild type (UniProt P68104); assay: cell-based or functional assay
FIG. 14 [5] = assay: FIG. 14
Procedure: (§1) Table printed on a drawing sheet, FIG. 14
(§2) The patent's description of the figure: FIG. 14. SRA3 pharmacokinetic data. PK studies were performed in C57BL/6 mice
First reader's note: IV route is given in the head cell of the first column; the plot legend on the same sheet prints IV 2 mg/kg in mouse.

FIG. 14 [6] = assay: FIG. 14; remark: listed apart in the source
Procedure: as §1, §2
First reader's note: IP route is given in the head cell of the first column; the plot legend on the same sheet prints IP 2 mg/kg in mouse.

[7] = tested on: protein synthesis in HCT116 cells; assay: Protein synthesis inhibition assay (continuous exposure), O-propargyl puromycin incorporation; type: cell-based; details: 24 h treatment, 1 h OPP pulse, read-out: IC50, rate of protein synthesis
Procedure: HCT116 cells at 80% confluency in 12-well plates were incubated with compounds with varying concentrations for 10 min or 24 hours at 37° C. After the indicated time, O-propargyl-puromycin (30 μM final concentration) was added, and the cells were incubated for 1 hour at 37° C. Subsequently, media was removed, and cells were trypsinized, collected, and washed twice with ice-cold PBS before transferring to a 96-well V bottom plate. 100 uL Zombie Red (BioLegend, San Diego, Calif.) solution was added to each well and incubated for 30 min at RT in dark. Cells were then washed with 2% FBS in PBS buffer before fixed with 200 uL of 4% PFA in PBS for 15 min on ice in dark. After washing the cells with 2% FBS in PBS buffer, 200 uL permeabilization buffer (3% FBS, 0.1% saponin in PBS) was added to each well, and the cells were incubated for 5 min at RT in the dark. Cells were then washed and resuspended in 25 uL permeabilization buffer. 100 uL click chemistry mix (50 mM HEPES pH=7.5, 150 mM NaCl, 400 uM TCEP, 250 uM TBTA, 5 uM CF405M-Azide (Biotium, Fremont, Calif.), 200 uM Cu2SO4) was added to each well, and cells were incubated at RT in the dark. […] Only single, live cells were analyzed (FlowJo), as judged by forward/side scattering and the absence of Zombie Red staining. […]

[8] = tested on: eEF1A-mutant (A399V) HCT116 cells; details: read-out: IC50, cell proliferation in eEF1A-mutant (A399V) cells; 72 h; AlamarBlue
Procedure: Cell proliferation (% DMSO control) was quantified using AlamarBlue. […] Data points (% DMSO control) are mean values±SD (n=3).
Adherent cells were briefly trypsinized and repeatedly pipetted to produce a homogeneous cell suspension. 2,500 cells were seeded in 100 uL complete growth media per well in 96-well clear-bottom plates. Suspension cells were repeatedly pipetted to produce a homogeneous cell suspension. 10,000 cells were seeded in 100 uL complete growth media per well in 96-well clear-bottom plates. After allowing cells to grow/adhere overnight, cells were treated with 25 uL/well 5×drug stocks (0.1% DMSO final) and incubated for 72 hr. AlamarBlue (Life Technologies, Grand Island, N.Y.) was used to assess cell viability per the manufacturer's instructions. Briefly, 12.5 uL alamarBlue reagent was added to each well, and plates were incubated at 37° C. Fluorescence intensity was measured every 30 min to determine the linear range for each assay (Ex 545 nm, Em 590 nm, SPARK, Tecan Austria GmbH, Austria). Proliferation curves were generated by first normalizing fluorescence intensity in each well to the DMSO-treated plate average. Normalized fluorescence intensities were plotted in GraphPad Prism (GraphPad, La Jolla, Calif.), and IC50 values calculated from nonlinear regression curves. The reported IC50 values represent the average of at least three independent determinations (±SD).

[9] = C57BL/6, mouse, in vivo, iv, 2 mg/kg
[10] = C57BL/6, mouse, in vivo, ip, 2 mg/kg

Chain of eEF1A (Elongation Factor 1-alpha), wild type (P68104 2-462): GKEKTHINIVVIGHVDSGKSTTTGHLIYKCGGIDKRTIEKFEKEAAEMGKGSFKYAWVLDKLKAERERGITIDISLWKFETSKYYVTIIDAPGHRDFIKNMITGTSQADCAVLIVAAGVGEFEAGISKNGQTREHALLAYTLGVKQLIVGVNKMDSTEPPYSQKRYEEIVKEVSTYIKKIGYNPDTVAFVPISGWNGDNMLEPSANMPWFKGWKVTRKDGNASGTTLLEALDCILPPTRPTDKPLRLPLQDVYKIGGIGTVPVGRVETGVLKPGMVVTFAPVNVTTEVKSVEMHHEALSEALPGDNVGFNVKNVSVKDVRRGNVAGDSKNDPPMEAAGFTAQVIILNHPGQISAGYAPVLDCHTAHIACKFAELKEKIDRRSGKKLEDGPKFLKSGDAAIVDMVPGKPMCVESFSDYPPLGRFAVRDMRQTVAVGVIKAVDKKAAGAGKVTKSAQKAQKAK

Compound: C=C[C@H](C)C[C@@H]1NC(=O)[C@H]([C@H](O)C(C)C)N(C)C(=O)[C@H](C)N(C)C(=O)[C@@H]([C@@H](C)CC)NC(=O)[C@@H]([C@H](O)C2CC2)NC(=O)[C@H]2CCCCN2C(=O)[C@H](C)N(C)C1=O [WHY4014]
IC50 (HCT116 cells): 14.8 nM

Compound: C=C[C@H](C)C[C@@H]1NC(=O)[C@H]([C@H](O)C(C)C)N(C)C(=O)[C@H](C)N(C)C(=O)[C@@H]([C@@H](C)CC)NC(=O)[C@@H]([C@H](O)C(C)C)NC(=O)[C@H]2CCCCN2C(=O)[C@H](C)N(C)C1=O [(S,R)-A3]
reduction of cell viability, continuous treatment [1]: low nanomolar concentrations | antiproliferative activity after transient exposure and washout [2]: profound and sustained loss of cell viability; also recorded: strong antiproliferative activity | recovery of protein synthesis after washout [3]: sustained, washout-resistant manner | maximum BW loss (Eμ-Myc/+ lymphoma cells; 2 mg/kg (1-2 mg/kg after day 21) intraperitoneal, QOD×3): < 8% | survival (Eμ-Myc/+ lymphoma cells; 2 mg/kg (1-2 mg/kg after day 21) intraperitoneal, QOD×3, P=0.0027): significantly improved survival | tumor growth (Eμ-Myc/+ lymphoma cells; 2 mg/kg (1-2 mg/kg after day 21) intraperitoneal, QOD×3, start 7 days after cell injection): reduced tumor growth | efficacy in mouse lymphoma model (Eμ-Myc/+ lymphoma cells; Eμ-Myc mouse model of B-cell lymphoma): efficacious

Compound: C=C[C@H](C)C[C@@H]1NC(=O)[C@H]([C@@H](O)C(C)C)N(C)C(=O)[C@H](C)N(C)C(=O)[C@@H]([C@@H](C)CC)NC(=O)[C@@H]([C@H](O)C(C)C)NC(=O)[C@H]2CCCCN2C(=O)[C@H](C)N(C)C1=O [(S,S)-A3]
reduction of cell viability, continuous treatment [1]: low nanomolar concentrations | antiproliferative activity after transient exposure and washout [2]: less efficacious | recovery of protein synthesis after washout [3]: partially recovered

cell proliferation rate after transient exposure (100 nM, 4 h) and washout, HCT116 cells, % of DMSO control (% of DMSO control) [4]: 50 | protein synthesis rate 24 h after washout (100 nM for 4 h), HCT116 cells, % of DMSO control (% of DMSO control) [4]: 30 | rate of protein synthesis (OPP incorporation), HCT116 cells, 10 min treatment; potency relative to SR-A3 [4]: 10 fold
Compound: ternatin-4 (peptide)

Compound: C=C[C@H](C)C[C@@H]1NC(=O)[C@H]([C@H](O)C(C)C)N(C)C(=O)[C@H](C)N(C)C(=O)[C@@H]([C@@H](C)CC)NC(=O)[C@@H]([C@H](O)C(C)C)NC(=O)[C@H]2CCCCN2C(=O)[C@H](C)N(C)C1=O [SRA3]
AUCInf (FIG. 14 [5]): 395 ng·h/mL | AUClast (FIG. 14 [5]): 367 ng·h/mL | CL (FIG. 14 [5]): 87.2 mL/min/kg | Vss (FIG. 14 [5]): 42.0 L/kg | Vz (FIG. 14 [5]): 52.7 L/kg | C0 (FIG. 14 [5]; [9]): 204 ng/mL | MRT (FIG. 14 [5]; [9]): 7.97 h | half-life (FIG. 14 [5]; [9]): 407 min | AUCInf (FIG. 14 [6]): 384 ng·h/mL | AUCInf/D (FIG. 14 [6]): 192 kg·ng·h/mL/mg | AUClast (FIG. 14 [6]): 347 ng·h/mL | F (%) (FIG. 14 [6]): 97.2% | tmax (FIG. 14 [6]): 35 min | Cmax (FIG. 14 [6]; [10]): 86.6 ng/mL | MRT (FIG. 14 [6]; [10]): 8.63 h | half-life (FIG. 14 [6]; [10]): 493 min

Compound: C=C[C@H](C)C[C@@H]1NC(=O)[C@H]([C@H](O)C(C)C)N(C)C(=O)[C@H](C)N(C)C(=O)[C@@H]([C@@H](C)CC)NC(=O)[C@@H]([C@H](O)C(C)C)NC(=O)[C@H]2CCCCN2C(=O)[C@H](C)N(C)C1=O [SR-A3]
cell proliferation after washout ([2]; HCT116, 100 nM for 4 h, rigorous washout, 72-h washout period): nearly abolished | IC50 [7]: ~20 nM | recovery of protein synthesis after washout [3]: sustained inhibition | IC50 [8]: > 1000 nM

Compound: C=C[C@H](C)C[C@@H]1NC(=O)[C@H]([C@H](O)C(C)C)N(C)C(=O)[C@H](C)N(C)C(=O)[C@@H]([C@H](C)CC)NC(=O)[C@@H]([C@H](O)C(C)C)NC(=O)[C@H]2CCCCN2C(=O)[C@H](C)N(C)C1=O [WHY3179]
IC50 (HCT116 cells): 6.3 nM

Reference: patent US20230135758A1, “[…] 1-ALPHA INHIBITORS AND USES THEREOF” (The Regents of the University of California, priority 2020, published 2023)
